{"source": "patent US20230049350A1", "about": "“COMPOUNDS FOR TREATING BRAIN CANCER” (Purdue Pharmaceutical Products L.P., priority 2014, published 2023)", "system": "twelve tested GBM cell lines", "experiment": "GBM cell line viability, panel of twelve tested cell lines", "type": "cell-based", "details": "in combination with 500 nM vorinostat", "procedure": "In vitro experiments were devised in which a series of GBM cell lines representative for MGMT negative and MGMT positive tumour cells were used.\nCompounds: 1-100 µM EDO-S101, 1-50 µM temozolomide (TMZ), 1-50 µM temozolomide + 500 nM vorinostat, 1-40 µM bendamustine, 1-40 µM bendamustine and 500 nM vorinostat.\nTwelve glioblastoma cell lines representing grade III and IV gliomas and with different expression of MGMT, drug and radiotherapy sensitivity and five patient derived glioblastoma stem, cells were used (see above). […] Spheres were counted 5 days after treatment under an inverted microscope at ×4 magnification. A sphere was counted if it had at least 15 cells.\nCells were seeded at a density of 2 × 10^4 cells/ml in 24 well plates. […] Cells trypsinized and resuspended in 1.0 ml of saline were counted using the NucleoCounterTM NC-100 (automated cell counter systems, Chemotec, Cydevang, DK) in order to evaluate cell viability. […] IC50 values were calculated by the GraFit method (Erithacus Software Limited, Staines, UK). Cell viability was measured with the 3-(4,5 dimethylthiazol-2-yl)-2,5-diphenyl tetrazolium bromide (MTT; Sigma-Aldrich) assay.\nIC50 and IC20 values for all twelve cell lines against bendamustine and vorinostat were also determined as described above. […]", "data": [{"smiles": "Cn1c(CCCC(=O)O)nc2cc(N(CCCl)CCCl)ccc21", "note": "[bendamustine]", "values": [{"measurement": "sensitivity of all cell lines (FIG. 5)", "value": "highly sensitive except Mz54 and T98G"}]}]}
